Assay [1] addresses 3H-nitrendipine binding, membrane preparation from the cortex of the rat brain. Kind of assay: displacement of tritium-labeled nitrendipine from rat brain cortex membranes (calcium-antagonistic activity). The conditions noted are these: 3H-nitrendipine 0.1 nM, TRIS buffer pH 7.4, 25° C., 60 minutes; read-out: IC50 (displacement of 50% of the radioactively labeled nitrendipine). The protocol: This test was carried out in a membrane preparation obtained from the cortex of the rat brain and washed several times, the method described by R. J. Gould et al. (Proc. Natl. Acad. Sci. U.S.A. 79, 3656 [1982]) essentially being used. […] The membrane fractions were separated off by vacuum filtration over Whatman-GF/F glass fiber filters and the radioactivity was measured in a liquid scintillation counter. […] The IC50 value, i.e. the concentration of test substance which is capable of displacing 50% of the radioactively labeled nitrendipine, is determined as the characteristic parameter.

The subject of another assay is isolated guineapig heart. Description: coronary circulation on the isolated guineapig heart (Langendorff). The conditions noted are these: Cavia porcellus, vs control hearts; for activation at 0.0001 mg: dose 0.1 μg via feed tube; for activation at 0.0005 mg: dose 0.5 μg via feed tube. The protocol:
For this test, female heparinized (2.5 mg of heparin sodium intraperitoneally 1 hour before sacrifice) guineapigs (220-250 g) were sacrificed by a blow on the neck. Immediately after the thorax has been opened, cardiac arrest was induced by cooling the heart with icecold saline solution. The ascending aorta was catheterized and connected to a non-recirculating perfusion system (hydrostatic pressure 65 cm of H2 O) in accordance with the method of Langendorff. Exposure of the heart was folowed by a perfusion period of 30 minutes for adaptation of the heart to the isolated state. A modified Krebs-Henseleit bicarbonate solution (113.8 mM NaCl, 22.0 mM NaHCO3, 4.7 mM KCl, 1.2 mM KH2 PO4, 1.1 mM MgSO4 ×7 H2 O and 2.5 mM CaCl2 ×2 H2 O, equilibrated with 95% of O2 and 5% of CO2, pH 7.41, 38° C.) was used as the perfusate. Glucose (11 mM) and sodium pyruvate (2.0 mM) were added. The osmolality of the perfusate was kept constant by adjusting the amount of NaCl. The hearts were loaded with a resting voltage of 2 pond (p). The heart rate and contraction force were recorded isometrically and the equipment for this (Hellige GmbH, Freiburg, Germany) were calibrated to 2 p. The coronary flow was determined with the aid of a drop counter, 7 drops corresponding to 1 ml. The values stated are expressed as the percentage increase in coronary circulation after administration of the test substance in the stated dosage via a feed tube (0.1% strength solution in propanediol), based on control hearts without addition of the test substance. The following table contains some of the values measured:
(a) mean value of 28 measurements
(b) the values stated result from in each case two measurements.

Where [2] appears, read: values from in each case two measurements, read-out: Increase in coronary circulation.

Like-named read-outs stand apart in the source and are kept apart here.

For orientation: IC50 means the concentration needed to halve the response being measured. Regarding `Fc1ccc(C(CCCN2CCN(CCOC3CCCCC3)CC2)c2ccc(F)cc2)cc1` [Example 16, 1-[4,4-bis(4-fluorophenyl)butyl]-4-[(2-cyclohexoxy)-ethyl]piperazine], the concentration for half-maximal inhibition (IC50) in assay [1] was 22 nM.

As to `Cc1ccc(OCCN2CCN(CCCC(c3ccc(F)cc3)c3ccc(F)cc3)CC2)cc1` [Example 17], in the assay on isolated guineapig heart (setting [2]), the activation at 0.0001 mg was in the range of 14 to 17% and the activation at 0.0005 mg is 33 to 38%. The concentration for half-maximal inhibition (IC50) in assay [1] is 12 nM. With `Fc1ccc(C(CCCN2CCN(CCOc3cccc4ccccc34)CC2)c2ccc(F)cc2)cc1` [Example 18, 1-[4,4-bis(4-fluorophenyl)butyl]-4-[2-(1-naphthyloxy)ethyl]piperazine], the IC50 in assay [1] was found to be 48 nM.

With `Fc1ccc(C(CCCN2CCN(CCCCOc3cccc4cnccc34)CC2)c2ccc(F)cc2)cc1` [Example 22], the concentration for half-maximal inhibition (IC50) in assay [1] came out at 85 nM. Regarding `Fc1ccc(C(CCCN2CCN(CCOc3cccc4ncccc34)CC2)c2ccc(F)cc2)cc1` [Example 28], the IC50 in assay [1] turned out to be 65 nM. Still for that read-out and setting: as for `Fc1ccc(C(CCCN2CCC(CCOc3cccc4cnccc34)CC2)c2ccc(F)cc2)cc1` [Example 32], the figure is 12 nM; as for `Fc1cccc(C(CCCN2CCN(CCOc3cccc4cnccc34)CC2)c2cccc(F)c2)c1` [Example 36], 90 nM; as for `CN(CCCC(c1ccc(F)cc1)c1ccc(F)cc1)C1CCN(CCOc2cccc3cnccc23)CC1` [Example 37], 400 nM. On the same count and under the same terms, in the case of `O=[N+]([O-])c1ccc(OCCN2CCN(CCCC(c3ccc(F)cc3)c3ccc(F)cc3)CC2)cc1` [Example 41] it was 8.5 nM. As for `COc1ccc(OCCN2CCN(CCCC(c3ccc(F)cc3)c3ccc(F)cc3)CC2)cc1` [Example 42], in the assay with isolated guineapig heart (setting [2]), the activation at 0.0005 mg lay in the range of 20 to 29%. For `Fc1ccc(OCCN2CCN(CCCC(c3ccc(F)cc3)c3ccc(F)cc3)CC2)cc1` [Example 45], in the assay on isolated guineapig heart (setting [2]), the activation at 0.0001 mg was 13 to 26% and the activation at 0.0005 mg lay in the range of 38 to 57%. Besides, the IC50 in assay [1] is 11 nM. Consider `CC(C)(C)c1ccc(OCCN2CCN(CCCC(c3ccc(F)cc3)c3ccc(F)cc3)CC2)cc1` [Example 46], for which, in the assay with isolated guineapig heart (setting [2]), the activation at 0.0001 mg was in the range of 12 to 23% and the activation at 0.0005 mg lay in the range of 21 to 36%. As for `Fc1ccc(C(CCCN2CCN(CCOc3ccc(C(F)(F)F)cc3)CC2)c2ccc(F)cc2)cc1` [Example 50], the activation at 0.0001 mg with isolated guineapig heart (mean value of 28 measurements, read-out: Increase in coronary circulation (mean value)) was determined as 38%. Moreover, the IC50 in assay [1] came to 4 nM. `NC(=O)C1CN(CCOc2ccccc2)CCN1CCCC(c1ccc(F)cc1)c1ccc(F)cc1` (centres unmarked) [Example 56]: in the assay on isolated guineapig heart (dose 1.0 μg via feed tube, values from in each case two measurements, read-out: Increase in coronary circulation), the activation at 0.001 mg fell in the range of 40 to 65%. In assay [1], the IC50 came to 180 nM.

Turning to `O=C(O)C1CN(CCCC(c2ccc(F)cc2)c2ccc(F)cc2)CCN1CCOc1cccc2ccccc12` (centres unmarked) [Example 61], the IC50 in assay [1] amounted to 60 nM. As for `Fc1ccc(C(CCCN2CCN(CCOc3c(Cl)cccc3Cl)CC2)c2ccc(F)cc2)cc1` [Example 62], the activation at 0.0001 mg in the assay on isolated guineapig heart (setting [2]) was 9 to 13%. Turning to `CC(=O)c1cccc(OCCN2CCN(CCCC(c3ccc(F)cc3)c3ccc(F)cc3)CC2)c1` [Example 64], the half-maximal inhibitory concentration (IC50) in assay [1] turned out to be 19 nM. Take `CC(=O)c1ccccc1OCCN1CCN(CCCC(c2ccc(F)cc2)c2ccc(F)cc2)CC1` [Example 66]: the IC50 in assay [1] was determined as 12 nM. Consider `Fc1ccc(C(CCCN2CCN(CCOc3ccccc3C(F)(F)F)CC2)c2ccc(F)cc2)cc1` [Example 67], for which, in the assay with isolated guineapig heart (setting [2]), the activation at 0.0001 mg lay within 5 to 21% and the activation at 0.0005 mg is 23 to 35%. Regarding `Fc1ccc(C(CCCN2CCN(CCOc3cccc(C(F)(F)F)c3)CC2)c2ccc(F)cc2)cc1` [Example 68], in the assay on isolated guineapig heart (setting [2]), the activation at 0.0001 mg was 20 to 29%. In addition, the IC50 in assay [1] is 0.9 nM. With `Fc1ccc(C(CCCN2CCN(CCOc3cc(C(F)(F)F)cc(C(F)(F)F)c3)CC2)c2ccc(F)cc2)cc1` [Example 69], in assay [1], the IC50 was determined as 2 nM. With `CCOC(=O)c1ccc(OCCN2CCN(CCCC(c3ccc(F)cc3)c3ccc(F)cc3)CC2)cc1` [Example 70], the activation at 0.0005 mg with isolated guineapig heart (setting [2]) was in the range of 36 to 52%. As for `Fc1ccc(C(CCCN2CCC(CCOc3ccc(C(F)(F)F)cc3)CC2)c2ccc(F)cc2)cc1` [Example 71], the IC50 in assay [1] is 4.2 nM.

With `Fc1ccc(C(CCCN2CCC(CCOc3ccccc3C(F)(F)F)CC2)c2ccc(F)cc2)cc1` [Example 73], the IC50 in assay [1] amounted to 1.2 nM. The same measure, in the same setting: as for `Fc1ccc(C(CCCN2CCC(CCOc3cccc(C(F)(F)F)c3)CC2)c2ccc(F)cc2)cc1` [Example 74], the figure is 1 nM; as for `CSc1ccc(OCCN2CCN(CCCC(c3ccc(F)cc3)c3ccc(F)cc3)CC2)cc1` [Example 75], 9 nM; as for `Fc1ccc(C(CCCN2CCN(CCOc3ccc(Br)cc3)CC2)c2ccc(F)cc2)cc1` [Example 81], 3.6 nM. Still for that read-out and setting: as for `CN(C)S(=O)(=O)c1ccc(OCCN2CCN(CCCC(c3ccc(F)cc3)c3ccc(F)cc3)CC2)cc1` [Example 83], the figure is 70 nM; as for `Cc1cccc(C)c1NC(=O)CN1CCN(CCCC(c2ccc(F)cc2)c2ccc(F)cc2)CC1` [Lidoflazine, reference compound], 430 nM.

The values are drawn from patent publication US4918073A, “Diarylalkyl-substituted alkylamines and medicaments containing them” (Hoechst Aktiengesellschaft, priority 1986, dated 1990).
